# Measured values reported in patent US12030876B2, “Aryl hydrocarbon receptor (AHR) agonists and uses thereof” (Ikena Oncology, Inc., priority 2019, dated 2024).
# Assays:
# [1] = tested on: DSS model of Inflammatory Bowel Disease (IBD); set-up: species or system C57Bl/6 mice; details: mouse
# [2] = tested on: T-cell transfer IBD model; assay type: in vivo, SCID mice
# Method: On study day 0, donor Balb/C mice are terminated, and spleens obtained for CD4+CD45RB^high cell isolation (Using a SCID IBD Cell Separation Protocol). After cells have been sorted and obtained, each recipient SCID animal receives an IP injection of, at a minimum, 4×10^5 cells (200 μl/mouse injections). Also on study day 0, SCID mice are weighed and randomized into treatment groups based on body weight. On study day 14, AHR agonist compound treatments are initiated and dosed orally daily; the control group receiving anti-IL12 (0.5 mg/mouse) is dosed IP once a week. On study day 49, animals are anesthetized with Isoflurane and bled to exsanguination followed by cervical dislocation. The entire colon is removed, measured, and weighed. Overall efficacy of AHR agonist compounds are based on a ratio of colon weight to length, and colon histopathology and colon cytokines (Th17 panel).
# [3] = tested on: DSS model of Inflammatory Bowel Disease (IBD); assay type: in vivo, C57Bl/6 mice; details: DSS model
# Method: On study day −1, C57Bl/6 mice are weighed and randomized into treatment groups based on body weight. On study day 0, treatment groups are given 2.5% DSS in drinking water and treatment is initiated on the same day, with either vehicle or AHR agonist compound(s). On study day 7, DSS drinking water is replaced with normal drinking water for the remainder of the study. Body weight is measured daily during the entire study. On study day 10, animals are anesthetized with Isoflurane and bled to exsanguination followed by cervical dislocation. The entire colon is removed and measured for length, weight, and weight per length. Overall efficacy of test AR agonist compounds is based on body weight, colon length, and colon histopathology. Histopathology data is assessed for appropriate parameters, as determined by a pathologist and the parameters for these DSS studies can include inflammation, erosion, gland loss, edema, hyperplasia, neutrophil count, mucosal thickening, lymphoid aggregate count and lymphoid aggregate size. The different parameter scores can be added for a summed score for the study histopathology.
# [4] = tested on: Cyp1a1 gene expression; set-up: species or system C57BL/6N mice; details: mouse, in vivo
# Method: C57BL/6N mice are weighed and randomized into treatment groups with group size of 3-5 mice. On study Day 1, treatment is initiated and necropsies follow on day 1 at 4 and 12 hours post-dose and on Day 2, 24 hours post-dose. On Day 1, mice are dosed orally with one dose of the AHR agonist compound(s) that are in a suspension and mixed well before dosing. At the designated time, animals are euthanized and plasma and tissue taken for compound levels (PK) and compound effect (PD) on gene expression. Liver samples and proximal colon are weighed and then frozen for subsequent RNA extraction and RT-PCR analysis. AHR activation is determined by measuring Cyp1a1 gene expression relative to a housekeeping gene, such as GAPDH or HPRT. Cyp1a1 expression levels in the liver are compared to Cyp1a1 levels in the colon to determine a colon:liver ratio to determine the level of GI preferred AHR activation.
# [5] = tested on: human regulatory T cells (Tregs); experiment: Treg assay (human); assay type: cell-based; details: compound present during induction of Tregs, in vitro; FIG. 15
# Method: On day 0, naïve T cells from cryopreserved human derived PBMCs were isolated. These cells were plated in 48 well plate at 500,000 cells/mL concentration with human CD3/CD28 activation tetramer (12.5 μL/1×10^6 cells) and differentiated into regulatory T cells (Tregs) with 1 ng/mL […] and 5 ng/mL human recombinant TL-2 in the presence of DMSO or different concentrations of AHR agonist compounds.
# On day 5, the Tregs were counted and washed. CD25− Effector T cells (Teffs) were isolated from the same human donor and were labeled with Cell Trace Violet. The Tregs and Teffs were cocultured for 4 days in 96 well plate at 1:2 or 1:1 ratio with human CD3/CD28 tetramer (12.5 μL/1×10^6 cells).
# At the end of a 4 day co-culture, the cells were washed and stained with LiveDead stain. They were run on flow cytometer and analyzed using FLOWJO software.
# [6] = tested on: naive CD62L+ human T-Cells; experiment: Th17 assay; assay type: cell-based; details: FIG. 16
# Method: On Day 1, naive CD62L+ human T-Cells were plated in a 96 well plate (25,000 cells in 200 uL media). Cells were activated with human CD3/CD28 tetramer (12.5 μL/1×10^6 cells) and differentiated with human Th17 cytokines (50 ng/mL IL-6, 20 ng/mL IL-1 beta, 10 ng/mL IL-23, 1 ng/mL TGF-beta, 12 μg/mL anti-human IFN-γ antibody and 10 μg/mL anti-human TL-4 antibody) for 10 days. Media containing cytokine cocktail and CD3/CD28 was refreshed every 2-3 days. On Day 10, cell supernatant was collected and frozen for cytokine analysis. Cells were stimulated with 1× Cell Stimulation Cocktail (PMA and Ionomycin) for 5 hours. After 5 hours of stimulation, cells were stained for intracellular cytokines (human CD4, IL-17A, IL-22). Samples were run on BD LSR FORTESSA and analyzed in FLOWJO software.
# [7] = tested on: human Crohn's and ulcerative colitis tissue cultures
# [8] = T-cell transfer IBD model, FIG. 9
Structure (SMILES),in vivo AHR activation by expression of Cyp1a1 in the colon [1],"cytokine activity: IFN-γ, IL-1β, and MIP-3α/CCL20 ([2]; T-cell transfer IBD model, colon cytokines, FIG. 11)","cytokine activity: GM-CSF and IL-6 ([2]; T-cell transfer IBD model, colon cytokines, FIG. 12)","cytokine activity: IL-17/IL-25 and TNF-α ([2]; T-cell transfer IBD model, colon cytokines, FIG. 13)","body weight [2, 8]","colon weight [2, 8]","reduction in colon weight compared to vehicle [2, 8] [%]","reduction in colon weight per length compared to vehicle [2, 8] [%]","inflammation ([2]; T-cell transfer IBD model, FIG. 10)","in vivo AHR activation by expression of Cyp1a1 in the colon ([2]; mouse, in vivo)","inflammation and erosion (histopathology) ([3]; relative to vehicle control, FIG. 6, FIG. 19)",colon length ([3]; FIG. 5),content score ([3]; FIG. 5),Cyp1a1 induction in the colon [4],suppressive functions of human Tregs [5],IL-17A+ human T-cells ([6]; Th17 polarizing conditions),IL-22+ human T-cells ([6]; Th17 polarizing conditions),human Th17 cell differentiation ([6]; in vitro),"cytokine release: IFN-γ, IL-17A, IL-1β, and TNF-α [7]"
FC(F)(F)c1cccc(Nc2nc(-c3cccc(Cl)c3)cs2)c1 [Compound P-2],confirmed,significant reduction,significant reduction,reduction,increased body weight,decreased colon weight,54,54,significant reduction,confirmed,minimal inflammation and mild erosion,increased colon length,improved content score,–,–,–,–,–,–
Nc1cccc(-c2csc(Nc3cccc(C(F)(F)F)c3)n2)c1 [I-10],–,–,–,–,–,–,–,–,–,–,–,–,–,comparable,increases suppressive functions,decreases,increases,modulates,decreases
